Results: paper PMC8979230 (RSC Advances, 2022)

Biological target: PDE10A (Homo sapiens, UniProt Q9Y233)
Format: biochemical

PDE10A, sequence (Q9Y233 whole entry): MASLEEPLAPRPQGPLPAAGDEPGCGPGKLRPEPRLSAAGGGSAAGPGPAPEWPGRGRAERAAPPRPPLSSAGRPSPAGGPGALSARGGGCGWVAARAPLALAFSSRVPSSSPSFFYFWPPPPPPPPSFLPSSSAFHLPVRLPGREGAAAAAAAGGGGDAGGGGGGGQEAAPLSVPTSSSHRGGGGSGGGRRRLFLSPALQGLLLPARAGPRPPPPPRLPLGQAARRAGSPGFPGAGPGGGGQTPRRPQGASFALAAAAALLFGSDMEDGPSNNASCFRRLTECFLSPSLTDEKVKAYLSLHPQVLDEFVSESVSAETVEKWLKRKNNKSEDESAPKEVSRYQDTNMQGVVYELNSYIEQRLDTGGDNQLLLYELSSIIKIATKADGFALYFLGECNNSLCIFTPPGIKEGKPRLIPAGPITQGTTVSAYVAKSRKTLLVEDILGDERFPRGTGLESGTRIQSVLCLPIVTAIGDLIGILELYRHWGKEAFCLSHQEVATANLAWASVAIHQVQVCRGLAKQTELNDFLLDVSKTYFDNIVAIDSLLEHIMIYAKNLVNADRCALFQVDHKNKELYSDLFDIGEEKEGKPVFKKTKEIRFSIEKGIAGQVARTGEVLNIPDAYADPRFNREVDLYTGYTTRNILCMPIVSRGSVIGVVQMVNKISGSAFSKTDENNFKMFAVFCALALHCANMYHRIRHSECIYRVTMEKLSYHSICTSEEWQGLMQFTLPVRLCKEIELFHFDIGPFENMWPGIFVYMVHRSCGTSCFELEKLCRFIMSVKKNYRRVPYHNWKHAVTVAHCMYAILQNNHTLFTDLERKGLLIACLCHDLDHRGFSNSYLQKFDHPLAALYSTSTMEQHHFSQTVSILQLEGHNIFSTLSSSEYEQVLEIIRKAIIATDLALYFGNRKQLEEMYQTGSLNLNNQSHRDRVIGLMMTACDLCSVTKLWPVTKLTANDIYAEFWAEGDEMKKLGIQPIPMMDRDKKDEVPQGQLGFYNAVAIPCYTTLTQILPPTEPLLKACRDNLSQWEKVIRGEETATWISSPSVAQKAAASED

## Zinc42657360
  IC50: 1600 nM
